Reference: patent US20220401751A1, “Thalamic Input to Orbitofrontal Cortex Drives Brain-Wide, Frequency-Dependent Inhibition Mediated By GABA and Zona Incerta” (priority 2019, published 2022)
Counter-ions that a name gives are not always drawn.

Assays:
GABAA receptors = assay: Single-unit recordings in contralateral VLO during 10 Hz thalamocortical stimulation before and after micro-infusion of BMI; type: in vivo, Sprague-Dawley rats
Method: It was next hypothesized that decreases in cortical activity reflect direct GABA-mediated inhibition. The dependence of this response on downstream GABA release was tested by comparing evoked changes in firing rate before and after micro-infusion of bicuculline methiodide (BMI). […] Single-unit recordings were performed in cVLO, where negative fMRI signals were observed during 10 Hz thalamocortical stimulation (FIG. 5A). To ensure that any changes associated with BMI infusion were due to its pharmacological effect, infusions with sterile saline were first performed. To inject both BMI and saline, a pair of cannulas was attached to the recording electrode directly above the electrical contacts (FIG. 5B).
(§1) In vivo electrophysiology was performed to directly measure the neuronal activity of various brain regions during thalamocortical stimulation. As with imaging, anesthesia was maintained with a mixture of 02 (35%), N20 (65%), and −1.5% isoflurane. Throughout the procedure, body temperature was maintained at 37° C. using a thermoresistive heating pad (FHC, Inc., ME, USA). After securing the animal within a stereotactic frame, a 16-channel microelectrode array (NeuroNexus Technologies, MI, USA; A1×16 standard model linear electrode array) was inserted at the desired recording site. For recordings at the site of stimulation and zona incerta, an optical fiber glued to the electrode tip was used to deliver light. Remote recordings were performed at the following coordinates, averaged across animals: contralateral VLO (+4.68 mm AP, −1.90 mm ML, −4.90 mm DV), ipsilateral motor cortex (+3.24 mm AP, +2.43 mm ML, −3.00 mm DV), ipsilateral reticular nucleus (−1.86 mm AP, +2.20 mm ML, −6.93 mm DV), contralateral reticular nucleus (−1.92 mm AP, −2.10 mm ML, −7.17 mm DV), and ipsilateral zona incerta (−4.00 mm AP, +3.10 mm ML, −7.13 mm DV). Light was delivered to the fiber-optic implant at VLO via a 473 nm laser source calibrated to 5 mW power delivery. In one animal, a higher power level was used (no more than −2×) to account for a fiber implanted in a relatively dorsal position in VLO. For the optrode positioned in zona incerta, a […] diameter optical fiber was used to deliver continuous light from a 589 nm laser source (LaserGlow Technologies) calibrated to 5 mW at the implanted fiber's tip. Recordings were performed for 20 s without stimulation, followed by repeated stimulation cycles (20 s on, 40 s off) at 10 or 40 Hz with a 30% duty cycle. To assess the role of zona incerta, 10 Hz stimulation trials were interleaved with 30 s periods of simultaneous eNpHR activation beginning 5 s prior to 10 Hz stimulation (FIG. 7B).
(§2) Pharmacological infusions were performed during in vivo electrophysiology (same procedure as described above) with bicuculline methiodide (BMI; 0.6 mg/ml; Sigma-Aldrich #14343), lidocaine hydrochloride (2%; Fresenius Kabi, IL, USA; #491507), or sterile saline as a control. Solutions were delivered at a rate of 250 nL/min via two polyethylene cannulas (0.011/0.024″ ID/OD; A-M Systems, WA, USA)—one for saline and one for the active pharmacological agent—glued to the tip of a recording electrode, directly above the topmost recording contact. Cannula tips were beveled to ensure that injected solutions were released in the direction of the electrode.
(§3) Infusions of saline and BMI (500 nL) were performed in the contralateral VLO while recording directly below the site of infusion (FIG. 5B). For each solution, twenty 10 Hz stimulation/recording trials were performed before infusion onset, and twenty more trials were performed immediately after infusion. Saline was delivered first, followed by BMI. To assess the role of zona incerta, saline and lidocaine (500-1000 nL) were delivered to the ipsilateral zona incerta while recording in the contralateral VLO. […]

zona incerta = assay: Single-unit recordings in contralateral VLO during 10 Hz thalamocortical stimulation after lidocaine infusion in zona incerta; type: in vivo, Sprague-Dawley rats
Method: ZI activity was first inactivated via incertal infusions of the sodium channel blocker lidocaine hydrochloride (FIG. 6A and FIGS. 14A-14B). […] In contrast, only 72% of units were inhibited during 10 Hz stimulation after inactivation of zona incerta with lidocaine (FIG. 6B).
as §1, §2, §3

[1] = cVLO baseline (pre-stimulation) firing rate

| Compound | stimulus-evoked change in firing rate of a representative cVLO unit (GABAA receptors; 10 Hz stimulation after BMI infusion, p=0.63) | effect on stimulus-evoked inhibition in cVLO (GABAA receptors; 10 Hz thalamocortical stimulation, after BMI infusion) | time course of the reduction in stimulus-evoked inhibition (GABAA receptors; after BMI infusion, twenty 10 Hz trials) | units whose baseline firing rate decreased following BMI infusion (GABAA receptors; [1]) [%] | units whose baseline firing rate increased following BMI infusion (GABAA receptors; [1]) [%] | recorded units not modulated by stimulation after BMI infusion (GABAA receptors; cVLO units, 10 Hz thalamocortical stimulation, after 500 nL BMI (0.6 mg/ml) infusion in cVLO, 49 units, 2 animals, 20 trials per condition) [%] | recorded units exhibiting a significant increase in firing rate during stimulation after BMI infusion (GABAA receptors; cVLO units, 10 Hz thalamocortical stimulation, after BMI infusion) [%] | average baseline firing rate across all units after BMI infusion (GABAA receptors; cVLO, p=0.66) | stimulus-evoked change in firing rate of a representative cVLO unit (zona incerta; 10 Hz stimulation after lidocaine infusion, p=0.31) | time course of the reduction in evoked inhibition (zona incerta; after lidocaine infusion in zona incerta, twenty 10 Hz trials) | units inhibited during 10 Hz stimulation after inactivation of zona incerta (zona incerta; cVLO units, lidocaine (2%, 500-1000 nL) infused in ipsilateral zona incerta, N=62 units, 20 trials per condition) [%] | stimulus-evoked changes in firing rate versus baseline and post-saline values (zona incerta; cVLO, post-hoc tests, p=9.6×10^−10 and 3.0×10^−7) | effect on remote cortical inhibition driven by 10 Hz stimulation in a subset of recorded units (zona incerta; incertal infusion, representative cVLO unit) |
| --- | --- | --- | --- | --- | --- | --- | --- | --- | --- | --- | --- | --- | --- |
| C[N+]1(C)CCc2cc3c(cc2[C@H]1[C@@H]1OC(=O)c2c1ccc1c2OCO1)OCO3.[I-] [BMI, bicuculline methiodide] | no longer causes a significant change in firing rate | completely eliminated the stimulus-evoked inhibition | took immediate effect after BMI infusion and continued throughout the following twenty trials | 18 | 27 | 96 | 4 | not significantly different | – | – | – | – | – |
| CCN(CC)CC(=O)Nc1c(C)cccc1C [lidocaine, lidocaine hydrochloride] | – | – | – | – | – | – | – | – | no longer exhibits a significant change in firing rate | took immediate effect after lidocaine infusion and persisted throughout the following twenty trials | 72 | different than both baseline and post-saline values | completely eliminated the remote cortical inhibition |
